Measurements as given in the NIST ThermoML archive (doi:10.1021/je300252d).
± gives the expanded uncertainty stated by the source.

Test: mn = molality of the nth substance listed, in mol/kg
Conditions: 100 kPa, Liquid, Direct current cell with electrodes

Structure (SMILES): F[B-](F)(F)F.[Na+] [sodium tetrafluoroborate] + CN(C)C=O
- molar conductivity (283.15 K, m1 = 0.0001924): 0.006693 ± 7.6e-06 S·m2/mol
- molar conductivity (283.15 K, m1 = 0.0003952): 0.0066184 ± 6.4e-06 S·m2/mol
- molar conductivity (283.15 K, m1 = 0.0006451): 0.0065533 ± 5.2e-06 S·m2/mol
- molar conductivity (283.15 K, m1 = 0.0008265): 0.0065141 ± 4.1e-06 S·m2/mol
- molar conductivity (283.15 K, m1 = 0.001295): 0.006434 ± 3.5e-06 S·m2/mol
- molar conductivity (283.15 K, m1 = 0.002093): 0.0063285 ± 2.9e-06 S·m2/mol
- molar conductivity (283.15 K, m1 = 0.00309): 0.0062291 ± 2.6e-06 S·m2/mol
- molar conductivity (283.15 K, m1 = 0.004094): 0.0061456 ± 2.3e-06 S·m2/mol
- molar conductivity (283.15 K, m1 = 0.005982): 0.0060221 ± 2.1e-06 S·m2/mol
- molar conductivity (283.15 K, m1 = 0.007983): 0.0059166 ± 2e-06 S·m2/mol
- molar conductivity (283.15 K, m1 = 0.009964): 0.005832 ± 1.9e-06 S·m2/mol
- molar conductivity (283.15 K, m1 = 0.01199): 0.0057567 ± 1.8e-06 S·m2/mol
- molar conductivity (288.15 K, m1 = 0.0001674): 0.007209 ± 8e-06 S·m2/mol
- molar conductivity (288.15 K, m1 = 0.000442): 0.007102 ± 7.2e-06 S·m2/mol
- molar conductivity (288.15 K, m1 = 0.000627): 0.0070513 ± 5.5e-06 S·m2/mol
- molar conductivity (288.15 K, m1 = 0.0007814): 0.0070146 ± 4.4e-06 S·m2/mol
- molar conductivity (288.15 K, m1 = 0.001324): 0.0069135 ± 3.7e-06 S·m2/mol
- molar conductivity (288.15 K, m1 = 0.002128): 0.0067991 ± 3.1e-06 S·m2/mol
- molar conductivity (288.15 K, m1 = 0.003087): 0.0066947 ± 2.7e-06 S·m2/mol
- molar conductivity (288.15 K, m1 = 0.00408): 0.0066044 ± 2.4e-06 S·m2/mol
- molar conductivity (288.15 K, m1 = 0.006001): 0.0064671 ± 2.2e-06 S·m2/mol
- molar conductivity (288.15 K, m1 = 0.007983): 0.0063522 ± 2e-06 S·m2/mol
- molar conductivity (288.15 K, m1 = 0.009981): 0.0062566 ± 1.9e-06 S·m2/mol
- molar conductivity (288.15 K, m1 = 0.01195): 0.0061747 ± 1.9e-06 S·m2/mol
- molar conductivity (293.15 K, m1 = 0.0002336): 0.007686 ± 8.6e-06 S·m2/mol
- molar conductivity (293.15 K, m1 = 0.0004583): 0.0076005 ± 7.2e-06 S·m2/mol
- molar conductivity (293.15 K, m1 = 0.0006194): 0.0075538 ± 5.7e-06 S·m2/mol
- molar conductivity (293.15 K, m1 = 0.0008218): 0.0075029 ± 4.7e-06 S·m2/mol
- molar conductivity (293.15 K, m1 = 0.001262): 0.0074142 ± 4e-06 S·m2/mol
- molar conductivity (293.15 K, m1 = 0.001996): 0.0072971 ± 3.3e-06 S·m2/mol
- molar conductivity (293.15 K, m1 = 0.003085): 0.0071656 ± 2.9e-06 S·m2/mol
- molar conductivity (293.15 K, m1 = 0.004073): 0.0070679 ± 2.5e-06 S·m2/mol
- molar conductivity (293.15 K, m1 = 0.005971): 0.0069203 ± 2.3e-06 S·m2/mol
- molar conductivity (293.15 K, m1 = 0.007974): 0.0067931 ± 2.1e-06 S·m2/mol
- molar conductivity (293.15 K, m1 = 0.009986): 0.0066867 ± 2e-06 S·m2/mol
- molar conductivity (293.15 K, m1 = 0.01198): 0.0065964 ± 1.9e-06 S·m2/mol
- molar conductivity (298.15 K, m1 = 0.0001864): 0.008228 ± 9.9e-06 S·m2/mol
- molar conductivity (298.15 K, m1 = 0.0003604): 0.008147 ± 8.1e-06 S·m2/mol
- molar conductivity (298.15 K, m1 = 0.0005971): 0.0080676 ± 6.4e-06 S·m2/mol
- molar conductivity (298.15 K, m1 = 0.000833): 0.0080036 ± 5e-06 S·m2/mol
- molar conductivity (298.15 K, m1 = 0.001297): 0.0079038 ± 4.1e-06 S·m2/mol
- molar conductivity (298.15 K, m1 = 0.002158): 0.0077599 ± 3.5e-06 S·m2/mol
- molar conductivity (298.15 K, m1 = 0.00307): 0.0076432 ± 3e-06 S·m2/mol
- molar conductivity (298.15 K, m1 = 0.004131): 0.0075305 ± 2.6e-06 S·m2/mol
- molar conductivity (298.15 K, m1 = 0.005971): 0.0073766 ± 2.4e-06 S·m2/mol
- molar conductivity (298.15 K, m1 = 0.007994): 0.0072373 ± 2.2e-06 S·m2/mol
- molar conductivity (298.15 K, m1 = 0.009949): 0.0071242 ± 2.1e-06 S·m2/mol
- molar conductivity (298.15 K, m1 = 0.01197): 0.0070255 ± 2e-06 S·m2/mol
- molar conductivity (303.15 K, m1 = 0.0001663): 0.008767 ± 1e-05 S·m2/mol
- molar conductivity (303.15 K, m1 = 0.0003918): 0.008654 ± 8.9e-06 S·m2/mol
- molar conductivity (303.15 K, m1 = 0.0005861): 0.0085855 ± 6.9e-06 S·m2/mol
- molar conductivity (303.15 K, m1 = 0.0007746): 0.008529 ± 5.4e-06 S·m2/mol
- molar conductivity (303.15 K, m1 = 0.001279): 0.0084093 ± 4.5e-06 S·m2/mol
- molar conductivity (303.15 K, m1 = 0.002088): 0.0082612 ± 3.7e-06 S·m2/mol
- molar conductivity (303.15 K, m1 = 0.003044): 0.0081277 ± 3.2e-06 S·m2/mol
- molar conductivity (303.15 K, m1 = 0.004105): 0.0080061 ± 2.7e-06 S·m2/mol
- molar conductivity (303.15 K, m1 = 0.005964): 0.0078384 ± 2.5e-06 S·m2/mol
- molar conductivity (303.15 K, m1 = 0.007948): 0.0076906 ± 2.3e-06 S·m2/mol
- molar conductivity (303.15 K, m1 = 0.01001): 0.0075615 ± 2.1e-06 S·m2/mol
- molar conductivity (303.15 K, m1 = 0.01198): 0.0074596 ± 2e-06 S·m2/mol
- molar conductivity (308.15 K, m1 = 0.0001761): 0.009295 ± 1.2e-05 S·m2/mol
- molar conductivity (308.15 K, m1 = 0.0003871): 0.009183 ± 9.6e-06 S·m2/mol
- molar conductivity (308.15 K, m1 = 0.0005655): 0.0091142 ± 7.2e-06 S·m2/mol
- molar conductivity (308.15 K, m1 = 0.0008095): 0.0090359 ± 5.8e-06 S·m2/mol
- molar conductivity (308.15 K, m1 = 0.001266): 0.0089201 ± 4.8e-06 S·m2/mol
- molar conductivity (308.15 K, m1 = 0.002043): 0.0087655 ± 4e-06 S·m2/mol
- molar conductivity (308.15 K, m1 = 0.003019): 0.0086178 ± 3.4e-06 S·m2/mol
- molar conductivity (308.15 K, m1 = 0.004064): 0.0084888 ± 2.8e-06 S·m2/mol
- molar conductivity (308.15 K, m1 = 0.005984): 0.0083031 ± 2.6e-06 S·m2/mol
- molar conductivity (308.15 K, m1 = 0.007986): 0.0081431 ± 2.3e-06 S·m2/mol
- molar conductivity (308.15 K, m1 = 0.01001): 0.0080069 ± 2.2e-06 S·m2/mol
- molar conductivity (308.15 K, m1 = 0.01196): 0.0079009 ± 2.1e-06 S·m2/mol
- molar conductivity (313.15 K, m1 = 0.0001113): 0.009888 ± 1.2e-05 S·m2/mol
- molar conductivity (313.15 K, m1 = 0.0003812): 0.00972 ± 1.1e-05 S·m2/mol
- molar conductivity (313.15 K, m1 = 0.0006135): 0.0096252 ± 7.9e-06 S·m2/mol
- molar conductivity (313.15 K, m1 = 0.000783): 0.0095672 ± 6.1e-06 S·m2/mol
- molar conductivity (313.15 K, m1 = 0.001297): 0.0094265 ± 5e-06 S·m2/mol
- molar conductivity (313.15 K, m1 = 0.002162): 0.0092463 ± 4.2e-06 S·m2/mol
- molar conductivity (313.15 K, m1 = 0.003051): 0.0091053 ± 3.5e-06 S·m2/mol
- molar conductivity (313.15 K, m1 = 0.004099): 0.0089684 ± 2.9e-06 S·m2/mol
- molar conductivity (313.15 K, m1 = 0.005996): 0.0087733 ± 2.7e-06 S·m2/mol
- molar conductivity (313.15 K, m1 = 0.008013): 0.0086011 ± 2.4e-06 S·m2/mol
- molar conductivity (313.15 K, m1 = 0.01004): 0.0084556 ± 2.2e-06 S·m2/mol
- molar conductivity (313.15 K, m1 = 0.01199): 0.0083454 ± 2.1e-06 S·m2/mol
- molar conductivity (318.15 K, m1 = 0.0001596): 0.0104 ± 1.2e-05 S·m2/mol
- molar conductivity (318.15 K, m1 = 0.0004215): 0.01024 ± 1.1e-05 S·m2/mol
- molar conductivity (318.15 K, m1 = 0.0005697): 0.010177 ± 7.9e-06 S·m2/mol
- molar conductivity (318.15 K, m1 = 0.0008753): 0.010067 ± 6.6e-06 S·m2/mol
- molar conductivity (318.15 K, m1 = 0.001339): 0.009935 ± 5.4e-06 S·m2/mol
- molar conductivity (318.15 K, m1 = 0.002012): 0.0097823 ± 4.4e-06 S·m2/mol
- molar conductivity (318.15 K, m1 = 0.003095): 0.009596 ± 3.7e-06 S·m2/mol
- molar conductivity (318.15 K, m1 = 0.004095): 0.0094578 ± 3.1e-06 S·m2/mol
- molar conductivity (318.15 K, m1 = 0.005994): 0.0092497 ± 2.8e-06 S·m2/mol
- molar conductivity (318.15 K, m1 = 0.008014): 0.0090658 ± 2.5e-06 S·m2/mol
- molar conductivity (318.15 K, m1 = 0.009953): 0.0089174 ± 2.3e-06 S·m2/mol
- molar conductivity (318.15 K, m1 = 0.01195): 0.0087989 ± 2.2e-06 S·m2/mol
